{
  "source": "patent US11491155B2",
  "about": "“Salt of a pyrimido[6,1-A]isoquinolin-4-one compound” (VERONA PHARMA PLC, priority 2015, dated 2022)",
  "key": {"[1]": {"experiment": "Aerosol performance of DPI formulations (Cyclohaler, NGI)", "type": "physicochemical", "protocol": "Capsules were hand filled with 20 mg of the 1% w/w RPL554 free base or salt variants: lactose blends, i.e. 200 μg salt per capsule, the fill weight of each capsule was recorded. Due to differences in the molecular weights of the RPL554 salt forms, the amount of RPL554 emitted per actuation varied as a function of molecular weight. The formulations were prepared with no adjustment for differences in molecular weight of the salts.\nThe powders were delivered via the Cyclohaler® DPI (PCH Pharmachemie, BV, The Netherlands). The Cyclohaler® DPI is a low resistance device and was operated at a flow rate of 90 L/min for 2.7 seconds. The cut off diameters for the NGI collection stages were calculated for the 90 L/min flow rate using the NGI User Guide (MSP Corporation, 2008).\nThe ED, FPD and FPF were determined from inertial impaction tests performed following the deposition of 5 capsules of each formulation into the NGI. For each capsule tested the combined weight of the Cyclohaler® and capsule was determined before and after operation to check that the dose had been delivered. The NGI was fitted with a pre-separator for these determinations. The central cup of the pre-separator was filled with 15 mL of diluent. Following deposition, the solution was recovered in a 20 mL volumetric flask and made up to volume with diluent. RPL554 was quantitatively recovered from the device, induction port and each of the NGI collection stages with 10 mL of diluent.\nThe volume of diluent used for each sample was selected to ensure RPL554 concentrations were above the limit of quantitation."}, "[2]": {"experiment": "RPL554 content and content uniformity of 1% w/w lactose powder blends", "type": "physicochemical", "protocol": "Batches (approximately 5 g) of 1% w/w RPL554 free base or salt variants: lactose blends were prepared. In brief, the RPL554 free base or salt plus a small quantity of lactose was passed through a 38 μm sieve. The sieved material plus the remaining lactose was mixed in a glass mortar prior to transfer to a stainless steel screw cap jar and further mixing (10 minutes at 46 rpm) conducted using a Turbula blender. The composition of the dry powder blend was 0.05 g API and 4.95 g lactose.\nIn order to determine the content uniformity of the blends, aliquots (approx. 20 mg) of powder were sampled from each blend, accurately weighed, and diluted to volume in 10 mL volumetric flasks with diluent. The flasks were sonicated for 3 minutes before samples were transferred to HPLC vials for analysis."}, "[3]": {"experiment": "Primary particle size analysis by laser light diffraction (Mastersizer 2000)", "type": "physicochemical", "conditions": "micronised, mean n=3", "protocol": "A Mastersizer 2000 fitted with a Scirocco 2000 dry powder dispersion unit (Malvern Instruments Ltd, UK) was used to analyse the primary particle size of the micronised RPL554 and salt variants. The salts (50 mg) were automatically sampled via a vibrating feed control at a feeder rate of 60% and dispersed in compressed air at a pressure of 3 bar."}, "[4]": {"experiment": "Solubility of RPL554 and salts in pMDI propellant systems", "type": "physicochemical", "conditions": "in HFA 134 with Ethanol/Tween", "protocol": "Quantitative assessment of the solubility of RPL554 and salt variants in the propellant systems of selected pMDI formulations (three replicates of each formulation) was performed. pMDIs were directly coupled to an adaptor fitted with a 0.20 μm filter unit connected, in series to a 21 G needle, which was inserted via a rubber septum, into a cooled multi-dose glass vial. A 19 G filter needle was inserted through the septum to aid evaporation of propellant from the vial. Prior to the filtration process the vial was cooled in a mixture of dry ice and acetone to ensure that the pressure within the vial was reduced in order to facilitate collection of the output from the pMDI. Ten consecutive actuations of the pMDI were fired through the filter and collected in the vial. Between actuations the canister was shaken for approximately 10 seconds. The pMDI unit was weighed before and after the filtering procedure. The filtrate was stored at room temperature and allowed to evaporate to dryness.\nSamples were recovered by carefully rinsing the inside of the vials with 1 mL of recovery solution before transfer to HPLC vials for analysis. The estimated % of RPL554 solubilised within the canister was calculated from the starting mass of RPL554 within the canisters, which in turn was calculated using the theoretical molecular weight values of the RPL554 free base and salt variants shown in Table 13. The theoretical molecular weight estimates of the salts were provided by Verona."}, "[5]": {"experiment": "Physico-chemical characteristics of salt candidates: solubility in water, pH of aqueous suspension/solution, form post water maturation", "procedure": "The physico-chemical characteristics of the salt candidates were determined."}, "[6]": {"experiment": "Intrinsic dissolution of compressed tablet, pH 7.0, 37° C. (Sirius inForm)", "type": "physicochemical", "conditions": "pH 7.0, 0.15 M NaCl, 37° C.; listed as benzenesulfonate salt", "protocol": "The dissolution assay (pH-dependent sample dissolution) was investigated using the Sirius inForm.\nDissolution of a compressed tablet of the compound was monitored in a pH 7.0 aqueous dissolution experiment (0.15 M NaCl) at 37° C. using UV-absorption spectroscopy in 2 hour experiments. A tablet with a diameter of 3 mm, requiring approximate weights of 10 mg was compressed under a weight of 100 kg load force. Only one face of the tablet was exposed to the dissolution medium, which contained a 0.01 M acetate/phosphate buffer system to minimise perturbation of the experimental pH from dissolution of the drug.\nStirring of the solution was continuous and at a constant rate of 100 rpm. The absorption data was converted to absolute sample weights using previously determined, pH-dependent, molar extinction coefficients. An appropriate wavelength range was chosen to ensure that spectroscopic data with an absorption value of <1.3 was analysed, avoiding erroneous dissolution results due to saturation of the UV light source."}, "[7]": {"experiment": "Solubility of RPL554 salts in saline solutions, water and aqueous buffer solutions at 25° C. (HPLC)", "type": "physicochemical", "conditions": "thermodynamic from solid", "protocol": "The behaviour of salts of RPL554 were examined under the following conditions: • Phosphate buffered to pH 3.5 in saline, 0.9% w/w at 25° C. • Acetate buffered to pH 4.5 in saline, 0.9% w/w at 25° C. • Citro-Phosphate buffered to pH 4.5 in saline, 0.9% w/w at 25° C. • Phosphate buffered to pH 6.5 in saline, 0.9% w/w at 25° C. • Saline, 0.7, 0.9 and 1.1% w/w at 25° C. • Deionised water at 25° C.\nRPL554 salts and RPL554, ca 50 mg, were suspended in the various aqueous media, 1 ml, with agitation at the specified temperatures for 24 hours. The solids were isolated and dried in vacuo at 45° C. The retained filtrates were examined by HPLC.\nAdditional RPL554 methane sulfonate salt, ca 50 mg, was charged to the water mixtures at 25° C. and 37.5° C. in order to afford a suspension. In all other cases, suspensions were obtained.\nThe solubility of the RPL554 was determined by HPLC using a single point calibration and is expressed as RPL554 and not as the salt and are detailed in Table 6 and Table 7 for the various conditions utilised."}},
  "note": "Like-named read-outs stand apart in the source and are kept apart here.",
  "data": [
    {"smiles": "COc1cc2c(cc1OC)-c1c/c(=N\\c3c(C)cc(C)cc3C)n(CCNC(N)=O)c(=O)n1CC2", "note": "[Benzenesulfonate, RPL554 benzenesulfonate]", "values": [
      {"measurement": "†Measured Mass of 1% w/w Blend Delivered per capsule", "setting": "[1]; Cyclohaler, 5 capsules containing 20 mg powder blend, mass from weight change of capsule-loaded device", "value": 20.04, "unit": "mg"},
      {"measurement": "††RPL554 Emitted (μg) per capsule (B)", "setting": "[1]; Cyclohaler, NGI, mass determined from HPLC analysis of recovered samples, as RPL554 base", "value": 87.57, "unit": "µg"},
      {"measurement": "Calculated RPL554 Content (μg) per capsule (A)", "setting": "[1]; calculated from delivered blend mass and measured blend content, as RPL554 base", "value": 134.49, "unit": "µg"},
      {"measurement": "Measured Blend Content (% Theoretical)", "setting": "[2]; 1% w/w RPL554 variant: lactose powder blend, expressed as RPL554 base", "value": 89.34, "unit": "% Theoretical"},
      {"measurement": "**Adjusted RPL554 Content per capsule", "setting": "[2]; per 20 mg capsule of 1% w/w lactose blend, adjusted for measured blend content (% theoretical), as RPL554 base", "value": 134.22, "unit": "µg"},
      {"measurement": "D (0.1) (μm)", "setting": "[3]", "value": 0.46, "unit": "μm"},
      {"measurement": "D (0.5) (μm)", "setting": "[3]", "value": 1.23, "unit": "μm"},
      {"measurement": "D (0.9) (μm)", "setting": "[3]", "value": 3.51, "unit": "μm"},
      {"measurement": "Estimated RPL554 solubilised (%)", "setting": "[4]", "value": 4.03, "unit": "%"},
      {"measurement": "Estimated Solubilised RPL554 μg per 50 μL actuation", "setting": "[4]", "value": 6.05, "unit": "µg"},
      {"measurement": "Solubility RPL554", "setting": "[4]", "value": 90.57, "unit": "µg/g"},
      {"measurement": "pH of aqueous suspension/solution", "setting": "[5]; listed as Benzene sulfonic", "value": 3.43},
      {"measurement": "solubility", "setting": "[5]; water", "value": 1470, "unit": "µg/mL"},
      {"measurement": "Mass of salt (μg) dissolved after 2 hours, Average", "setting": "[6]", "value": 60.1, "unit": "µg"},
      {"measurement": "Mass of salt (μg) dissolved after 2 hours, Test 1", "setting": "[6]", "value": 50.0, "unit": "µg"},
      {"measurement": "Mass of salt (μg) dissolved after 2 hours, Test 2", "setting": "[6]", "value": 70.1, "unit": "µg"},
      {"measurement": "solubility at 24 h", "setting": "[7]; 0.7% w/w saline, saline or isotonic, 24 hours, read-out: Solubility as RPL554 (mg/ml) in 0.7 w/w % Saline", "value": 2.27, "unit": "mg/mL"},
      {"measurement": "solubility at 24 h", "setting": "[7]; 0.9% w/w saline, saline or isotonic, 24 hours, read-out: Solubility as RPL554 (mg/ml) in 0.9 w/w % Saline", "value": 2.74, "unit": "mg/mL"},
      {"measurement": "solubility at 24 h", "setting": "[7]; 1.1% w/w saline, saline or isotonic, 24 hours, read-out: Solubility as RPL554 (mg/ml) in 1.1 w/w % Saline", "value": 2.94, "unit": "mg/mL"},
      {"measurement": "solubility at 24 h", "setting": "[7]; acetate buffer in 0.9% w/w saline, pH 4.5, aqueous buffer, in saline 0.9% w/w, read-out: Solubility as RPL554 (mg/ml) in buffer solution pH 4.5, Acetate", "value": 1.39, "unit": "mg/mL"},
      {"measurement": "solubility at 24 h", "setting": "[7]; citro-phosphate buffer in 0.9% w/w saline, pH 4.5, aqueous buffer, in saline 0.9% w/w, read-out: Solubility as RPL554 (mg/ml) in buffer solution pH 4.5, Citro-phosphate", "value": 1.57, "unit": "mg/mL"},
      {"measurement": "solubility at 24 h", "setting": "[7]; phosphate buffer in 0.9% w/w saline, pH 3.5, aqueous buffer, in saline 0.9% w/w, read-out: Solubility as RPL554 (mg/ml) in buffer solution pH 3.5, Phosphate", "value": 1.1, "unit": "mg/mL"},
      {"measurement": "solubility at 24 h", "setting": "[7]; deionised water, 24 hours, read-out: Solubility as RPL554 (mg/ml) in Water", "value": 2.57, "unit": "mg/mL"}
    ]}
  ]
}
